Data: PMC12037410, “Pharmacological targeting of BMAL1 modulates circadian and immune pathways” (Nature Chemical Biology, 2025)

Target: BMAL1 (Homo sapiens, UniProt O00327)
Set-up: PASB domain (residues 338–449); Protein thermal shift (PTS) fragment screen on recombinant human BMAL1(PASB), shift of melting temperature
Settings: dTmB; binder

Chain of BMAL1 (O00327 338-449): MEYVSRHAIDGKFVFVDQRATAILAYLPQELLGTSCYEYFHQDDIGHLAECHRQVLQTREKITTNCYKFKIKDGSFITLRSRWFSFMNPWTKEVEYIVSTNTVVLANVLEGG

| Compound | Bmal1(PASB) dTmB [°C] |
| --- | --- |
| Cc1nccn1CCO [Prestw-Frag-1517, Compound 258] | -0.20 |
| CNCC(c1ccc(OC)cc1)C1(O)CCCCC1 (stereo not shown) [Prestw-Frag-1523, Compound 157] | -0.81 |
| CN(C)C(=O)Oc1ccccc1 [Prestw-Frag-1540, Compound 384] | -0.26 |
| Nc1ccc([N+](=O)[O-])cc1Cl [Prestw-Frag-1543, Compound 463] | 0.66 |
| O=C(Nc1ccccc1Cl)c1ccccc1O [Prestw-Frag-1545, Compound 383] | 1.33 |
| COC(=O)C1=C(C)NC(C)=C(C(=O)OC)C1 [Prestw-Frag-1547, Compound 26] | -1.89 |
| COc1ccc(N2CCN(c3ccc(N)cc3)CC2)cc1 [Prestw-Frag-1557, Compound 35] | 0.19 |
| O=c1[nH]nc(Cc2ccc(Cl)cc2)c2ccccc12 [Prestw-Frag-1559, Compound 61] | -0.44 |
| O=c1[nH]ncc2ccccc12 [Prestw-Frag-1560, Compound 345] | -0.38 |
| O=c1[nH]nc(Cc2ccccc2)c2ccccc12 [Prestw-Frag-1561, Compound 106] | -0.90 |
| CC(C)CC(N)C1(c2ccc(Cl)cc2)CCC1 (stereo not shown) [Prestw-Frag-1566, Compound 459] | -2.54 |
| Cc1cc(C(C)(C)C)cc(C)c1CC1=NCCN1 [Prestw-Frag-1575, Compound 425] | -1.26 |
| O=c1[nH]c2ccccc2n1C1CCNCC1 [Prestw-Frag-1587, Compound 407] | -0.86 |
| OCCOc1cccc2[nH]ccc12 [Prestw-Frag-1595, Compound 110] | -0.17 |
| NCCc1c[nH]c2ccc(O)cc12 [Prestw-Frag-1643, Compound 78] | -0.60 |
| Oc1ccc2[nH]ccc2c1 [Prestw-Frag-1645, Compound 308] | 0.24 |
| Cc1cc(N)no1 [Prestw-Frag-1647, Compound 292] | -0.16 |
| Nc1ccnn1-c1ccccc1 [Prestw-Frag-1648, Compound 208] | -0.34 |
| OC(c1ccccc1)(c1ccccc1)C1CCNCC1 [Prestw-Frag-1654, Compound 403] | -1.27 |
| NC(=O)CN1C(=O)c2ccccc2C1=O [Prestw-Frag-1661, Compound 297] | -0.12 |
| Cc1ccc(S(=O)(=O)NC(N)=O)cc1 [Prestw-Frag-1667, Compound 248] | 0.07 |
| O=c1[nH]nc2ccccn12 [Prestw-Frag-1673, Compound 287] | -1.05 |

| Compound | Bmal1(PASB) dTmB [°C] |
| --- | --- |
| O=C(O)C(CO)c1ccccc1 (stereo not shown) [Prestw-Frag-1686, Compound 284] | -1.23 |
| CC(N)COc1ccccc1 (stereo not shown) [Prestw-Frag-1691, Compound 270] | 0.11 |
| c1cc2c(s1)CCNC2 [Prestw-Frag-1694, Compound 112] | -0.53 |
| Clc1cccc(CN2CCNCC2)c1 [Prestw-Frag-1700, Compound 62] | -0.92 |
| Clc1ccc(-c2cncnc2)cc1 [Prestw-Frag-1704, Compound 385] | -1.51 |
| CCCC(=O)Nc1ccc(O)c(C(C)=O)c1 [Prestw-Frag-1716, Compound 95] | -1.04 |
| CCCC(=O)Nc1cccc(C(C)=O)c1 [Prestw-Frag-1717, Compound 428] | -0.30 |
| c1ccc2c(c1)CNc1ccccc1C2 [Prestw-Frag-1722, Compound 6] | -1.75 |
| COc1cc(C(N)=O)cc(OC)c1OC [Prestw-Frag-1731, Compound 341] | -0.33 |
| CCN(CC)CCOC(=O)c1ccccc1 [Prestw-Frag-1735, Compound 406] | -0.48 |
| O=C1CCOc2ccccc21 [Prestw-Frag-1740, Compound 360] | -0.05 |
| Clc1ccc(C(c2ccccc2)N2CCNCC2)cc1 (stereo not shown) [Prestw-Frag-1741, Compound 476] | -4.68 |
| O=C(NCc1cccnc1)c1ccc(O)cc1 [Prestw-Frag-1747, Compound 457] | -0.46 |
| CC(=O)Nc1ncc([N+](=O)[O-])s1 [Prestw-Frag-1750, Compound 291] | 0.07 |
| O=C(O)CCCc1ccc(-c2ccccc2)cc1 [Prestw-Frag-1767, Compound 455] | -2.43 |
| O=C(O)CCC(=O)c1ccccc1 [Prestw-Frag-1768, Compound 87] | -0.11 |
| CNCCC(c1ccccc1)c1ccccc1 [Prestw-Frag-1772, Compound 410] | -1.48 |
| COc1ccc(Cl)cc1C(N)=O [Prestw-Frag-1775, Compound 316] | -0.78 |
| CC(=O)Nc1ccccn1 [Prestw-Frag-1782, Compound 170] | -0.28 |
| Cc1cccc(O)c1 [Prestw-Frag-1791, Compound 216] | -0.80 |
| Cc1c(N)c(=O)n(-c2ccccc2)n1C [Prestw-Frag-1807, Compound 18] | -0.46 |
| COc1ccc(OCC(N)=O)cc1 [Prestw-Frag-1812, Compound 300] | 0.07 |

| Compound | Bmal1(PASB) dTmB [°C] |
| --- | --- |
| c1ccc(C(c2ccccc2)N2CCCNCC2)cc1 [Prestw-Frag-1817, Compound 445] | -1.89 |
| NNCCc1ccccc1 [Prestw-Frag-1818, Compound 31] | -1.46 |
| Cc1[nH]c2ccccc2c1CC(=O)O [Prestw-Frag-1824, Compound 477] | -6.48 |
| O=C(COc1ccc(Cl)cc1)N1CCNCC1 [Prestw-Frag-1832, Compound 244] | -1.08 |
| Cc1ccccc1NC(=O)C(C)N (stereo not shown) [Prestw-Frag-1856, Compound 389] | 0.12 |
| CC(C(=O)O)c1ccccc1 (stereo not shown) [Prestw-Frag-1859, Compound 194] | -0.02 |
| O=C(c1ccccc1)c1ccccc1 [Prestw-Frag-1860, Compound 423] | -0.99 |
| CS(=O)(=O)Nc1ccccc1Oc1ccccc1 [Prestw-Frag-1861, Compound 432] | -1.83 |
| COC(=O)C(O)(c1ccccc1)C1CCCCC1 (stereo not shown) [Prestw-Frag-1867, Compound 446] | -1.54 |
| c1ccc(CC2CCNCC2)cc1 [Prestw-Frag-1868, Compound 296] | -0.76 |
| O=C1NCN(c2ccccc2)C12CCNCC2 [Prestw-Frag-1869, Compound 339] | -0.72 |
| Nc1ccnc2ccccc12 [Prestw-Frag-1878, Compound 323] | -0.67 |
| CC(=O)c1ccccc1O [Prestw-Frag-1884, Compound 211] | -0.17 |
| COc1ccc(CNCCN(C)C)cc1 [Prestw-Frag-1887, Compound 172] | -0.14 |
| CN(C)Cc1ccc(CSCCN)o1 [Prestw-Frag-1889, Compound 8] | -2.44 |
| Cc1ccc(S(N)(=O)=O)cc1 [Prestw-Frag-1894, Compound 198] | -0.38 |
| NS(=O)(=O)c1ccccc1 [Prestw-Frag-1895, Compound 148] | -0.29 |
| COc1ccc2nc(N)sc2c1 [Prestw-Frag-1898, Compound 305] | 1.10 |
| O=C1Nc2ccccc2Nc2ccccc21 [Prestw-Frag-1904, Compound 439] | 0.05 |
| CCCOc1ccccc1C(=N)N [Prestw-Frag-1910, Compound 398] | -0.43 |
| Cc1ccccc1-c1ccccc1CO [Prestw-Frag-1923, Compound 451] | -1.24 |
| OC(c1ccc(F)cc1)c1ccc(F)cc1 [Prestw-Frag-1924, Compound 461] | -1.89 |

| Compound | Bmal1(PASB) dTmB [°C] |
| --- | --- |
| NCCOC(c1ccc(F)cc1)c1ccc(F)cc1 [Prestw-Frag-1925, Compound 448] | -1.45 |
| CC(C)(C)NCC(O)c1ccccc1 (stereo not shown) [Prestw-Frag-1929, Compound 213] | -0.34 |
| OCc1cc(O)cc(O)c1 [Prestw-Frag-1935, Compound 76] | -0.85 |
| CC(N)C(=O)c1ccccc1 (stereo not shown) [Prestw-Frag-1941, Compound 223] | -0.18 |
| OCCCN1CCN(c2ccccc2)CC1 [Prestw-Frag-1944, Compound 178] | -0.31 |
| OCCN1CCN(c2ccccc2)CC1 [Prestw-Frag-1945, Compound 144] | -0.42 |
| O=C(CCN1CCCCC1)c1ccccc1 [Prestw-Frag-1953, Compound 479] | -3.22 |
| O=C(Cc1ccccc1)NO [Prestw-Frag-1961, Compound 252] | -0.30 |
| O=C(O)c1ccc(Oc2ccccc2)cc1 [Prestw-Frag-1968, Compound 155] | -0.89 |
| NC(=O)Cc1ccccn1 [Prestw-Frag-1971, Compound 173] | -0.17 |
| NS(=O)(=O)c1ccc(Cl)cc1 [Prestw-Frag-1977, Compound 122] | -0.58 |
| CCN(CC)CCNc1ccccc1 [Prestw-Frag-1993, Compound 214] | -0.30 |
| Cc1cccc(C)c1NC(=O)CN1CCNCC1 [Prestw-Frag-1996, Compound 391] | -0.66 |
| NCCc1cnc[nH]1 [Prestw-Frag-1999, Compound 330] | -0.23 |
| Cc1c[nH]c(=O)[nH]c1=O [Prestw-Frag-2017, Compound 255] | -0.13 |
| CNC(=O)c1ccc(Cl)cc1 [Prestw-Frag-2018, Compound 319] | -0.45 |
| Cc1noc(N)c1C [Prestw-Frag-2021, Compound 114] | -0.18 |
| CNS(=O)(=O)c1ccccc1 [Prestw-Frag-2023, Compound 256] | -0.20 |
| CN(C)CCNC(=O)c1ccc(N)cc1 [Prestw-Frag-2031, Compound 430] | -0.84 |
